From patent US7244753B2, “Cyclooxygenase-2 selective inhibitors, compositions and methods of use” (NitroMed, Inc., priority 2002, dated 2007) come the findings set out here.

Broadly, the inhibition is the relative decrease from the control value, in per cent. As a reminder, the melting point is the temperature, or range, at which the solid turns liquid.

One series deals with T1, Human COX-1 (Homo sapiens, UniProt P23219).
T1 construct: Human blood (≈50 mL) from male or female donors who had not received any aspirin or NSAIDs for 14 days was collected; endogenous in cells; host or cells: human whole blood from donors, heparinised, stimulated with calcium ionophore A23187
Description: COX-1 enzyme activity in human whole blood (A23187-stimulated, thromboxane B2 EIA). It counts as cell-based. Particulars: 100 μM test compound. The procedure:
(§1) The assay for COX-1 and COX-2 enzyme activity, in the human whole blood was performed as described in Brideau et al., Inflamm Res., 45: 68-74 (1996)). Human blood (≈50 mL) from male or female donors who had not received any aspirin or NSAIDs for 14 days was collected at two local area blood donor centers and placed in polypropylene syringes containing sodium heparin (20 units per mL blood, final concentration). The blood was transported to the laboratory on ice packs and used within 1.5 hours of collection. Upon receipt in the laboratory, the blood was allowed to come to room temperature for 15 minutes prior to distribution in 1 mL aliquots per well of 24 well tissue culture plates. The plates were then placed on a gently rotating platform shaker in a 5% CO2 incubator at 37° C. for 15 minutes. Test compounds were dissolved in DMSO, at 1000 fold the final desired concentration, and further diluted, as indicated, in DMSO. One μL of each dilution of the test compound was added per well, in duplicate wells; wells not receiving test compound (e.g., basal, background or control wells) received 1 μL DMSO.
(§2) To induce COX-2, lipopolysaccharide (LPS) from E. coli (LPS, serotype 026:B6 or serotype 0127:B8, Sigma Chemical Co., St. Louis, Mo., Catalogue No. L3755 or L3129, respectively) was added at 10 μg/mL (2 μL of 5 mg/mL LPS in DMSO) to appropriate wells 15 minutes after the addition of the test compound. (Basal or background wells not incubated with LPS received 2 μL of DMSO.) For the stimulation of COX-1, the calcium ionophore, A23187 (free acid from Sigma Chemical Co., St. Louis, Mo., Catalogue No. C7522) was added at 25 μM (1 μL of 25 mM stock in DMSO) to separate wells 4.5 hours after the addition of the test compound. (Again, basal, background or control wells not stimulated with A23187 received 1 μL of DMSO.) At 5 hours after the addition of the test compound, all incubations were terminated by placement on ice and the addition of 2 mM EGTA (100 μL of 20 mM EGTA, tetrasodium, in PBS (phosphate buffered saline) without Ca^++ and Mg^++, pH 7.2)). The resulting solutions, were transferred by polyethylene transfer pipettes to 15 mL polypropylene centrifuge tubes and centrifuged at 1200 g for 10 minutes at 4° C. One hundred μL of plasma was removed from each blood sample and added to 1 mL of methanol in new 15 mL polypropylene centrifuge tubes, vortexed, and stored overnight at −20° C. The next day, the samples were centrifuged at 2000 g for 10 minutes at 4° C. and the supernatants transferred to glass tubes and evaporated to dryness. The samples were assayed for thromboxane B2 using EIA kits supplied by Cayman Chemical Co. (Ann Arbor, Mich., Catalogue No. 519031) in duplicate wells after reconstitution with EIA Buffer and appropriate dilution (2000 fold for COX-1 and 500 fold for Cox-2 samples).
The % inhibition for COX-1 and COX-2 enzyme activity in human whole blood by the test compounds, at the indicated concentrations, are given in Table 1.

The next series concerns the target T2, Human COX-2 (Homo sapiens, UniProt P35354).
T2 construct: Human blood (≈50 mL) from male or female donors who had not received any aspirin or NSAIDs for 14 days was collected; endogenous in cells; host or cells: human whole blood from donors, heparinised, COX-2 induced with E. coli LPS
T2 sequence (P35354 18-604): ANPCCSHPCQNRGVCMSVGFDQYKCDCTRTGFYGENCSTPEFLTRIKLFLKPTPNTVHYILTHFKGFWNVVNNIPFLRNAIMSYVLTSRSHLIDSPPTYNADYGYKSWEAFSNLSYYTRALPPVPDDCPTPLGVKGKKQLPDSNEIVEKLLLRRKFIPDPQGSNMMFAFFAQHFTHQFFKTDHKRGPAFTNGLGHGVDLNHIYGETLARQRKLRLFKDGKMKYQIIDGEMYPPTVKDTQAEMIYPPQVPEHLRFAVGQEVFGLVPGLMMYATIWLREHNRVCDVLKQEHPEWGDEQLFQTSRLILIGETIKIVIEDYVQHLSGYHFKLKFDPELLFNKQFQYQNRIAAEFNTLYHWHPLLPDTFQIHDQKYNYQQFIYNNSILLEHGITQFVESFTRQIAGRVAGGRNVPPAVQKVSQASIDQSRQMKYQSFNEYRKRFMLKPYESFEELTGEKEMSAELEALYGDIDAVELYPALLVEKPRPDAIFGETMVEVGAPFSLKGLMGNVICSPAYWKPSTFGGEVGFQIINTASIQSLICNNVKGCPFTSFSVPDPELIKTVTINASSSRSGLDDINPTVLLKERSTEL
Description: COX-2 enzyme activity in human whole blood (LPS-induced, thromboxane B2 EIA). The series is classed as cell-based. The procedure: as §1, with “Human” for “The assay for COX-1 and COX-2 enzyme activity, in the human whole blood was performed as described in Brideau et al., Inflamm Res., 45: 68-74 (1996)). Human”
as §2, with “(Basal” for “To induce COX-2, lipopolysaccharide (LPS) from E. coli (LPS, serotype 026:B6 or serotype 0127:B8, Sigma Chemical Co., St. Louis, Mo., Catalogue No. L3755 or L3129, respectively) was added at 10 μg/mL (2 μL of 5 mg/mL LPS in DMSO) to appropriate wells 15 minutes after the addition of the test compound. (Basal”, “dryness.” for “dryness. The samples were assayed for thromboxane B2 using EIA kits supplied by Cayman Chemical Co. (Ann Arbor, Mich., Catalogue No. 519031) in duplicate wells after reconstitution with EIA Buffer and appropriate dilution (2000 fold for COX-1 and 500 fold for Cox-2 samples).”

T1 sequence (P23219 24-599): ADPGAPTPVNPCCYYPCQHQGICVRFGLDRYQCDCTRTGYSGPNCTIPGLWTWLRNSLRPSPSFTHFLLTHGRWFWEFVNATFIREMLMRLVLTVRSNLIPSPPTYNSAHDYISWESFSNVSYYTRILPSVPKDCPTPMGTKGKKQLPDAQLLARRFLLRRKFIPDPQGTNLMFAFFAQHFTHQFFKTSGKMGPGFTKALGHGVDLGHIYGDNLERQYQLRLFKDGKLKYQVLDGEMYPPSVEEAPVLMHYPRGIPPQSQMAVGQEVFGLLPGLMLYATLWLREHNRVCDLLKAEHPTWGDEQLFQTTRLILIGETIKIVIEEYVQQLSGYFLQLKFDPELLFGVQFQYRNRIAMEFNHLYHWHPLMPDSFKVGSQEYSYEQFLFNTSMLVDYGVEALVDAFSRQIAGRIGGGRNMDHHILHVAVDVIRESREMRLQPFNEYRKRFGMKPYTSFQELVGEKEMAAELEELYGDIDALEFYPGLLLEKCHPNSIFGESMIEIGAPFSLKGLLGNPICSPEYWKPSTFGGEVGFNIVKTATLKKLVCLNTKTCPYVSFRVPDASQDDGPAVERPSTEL

Consider `CS(=O)(=O)c1ccc(-c2cc(CO)nn2CC2CCCCC2)cc1` [Example 1g, 1-(1-(Cyclohexylmethyl)-3-(hydroxymethyl)pyrazol-5-yl)-4-(methylsulfonyl)benzene], for which, on Human COX-1, the inhibition at 100 µM came out at 65%. Moreover, at Human COX-2 (1 μM test compound), the inhibition at 1 µM was 0%. Further, the inhibition at 10 µM against Human COX-2 (10 μM test compound) is 45%.
`CS(=O)(=O)c1ccc(-c2cc(CO[N+](=O)[O-])nn2CC2CCCCC2)cc1` [Example 1h, 1-(1-(Cyclohexylmethyl)-3-((nitrooxy)methyl)pyrazol-5-yl)-4-(methylsulfonyl)benzene] had a melting point of 98 to 99 °C. The inhibition at 100 µM at Human COX-1 amounted to 25%. The inhibition at 1 µM against Human COX-2 (1 μM test compound) came to 10%. Also, the inhibition at 10 µM against Human COX-2 (10 μM test compound) was determined as 65%.
With `CS(=O)(=O)c1ccc(-c2cc(COCCO)nn2CC2CCCCC2)cc1` [Example 2e, 4-(1-(Cyclohexylmethyl)-3-((2-hydroxyethoxy)methyl)pyrazol-5-yl)-1 (methylsulfonyl)benzene], the inhibition at 100 µM against Human COX-1 was found to be 65%. Also, at Human COX-2 (1 μM test compound), the inhibition at 1 µM turned out to be 25%. Besides, the inhibition at 10 µM against Human COX-2 (10 μM test compound) stood at 65%.
As to `CS(=O)(=O)c1ccc(-c2cc(CO)nn2Cc2ccccc2)cc1` [Example 3c, 1-(3-(Hydroxymethyl)-1-benzylpyrazol-5-yl)-4-(methylsulfonyl)benzene], the inhibition at 100 µM on Human COX-1 worked out at 25%. In addition, the inhibition at 1 µM on Human COX-2 (1 μM test compound) worked out at 10%. On Human COX-2 (10 μM test compound), the inhibition at 10 µM was 15%.
Turning to `CS(=O)(=O)c1ccc(-c2cc(CO[N+](=O)[O-])nn2Cc2ccccc2)cc1` [Example 3d, 4-(Methylsulfonyl)-1-(3-((nitrooxyl)methyl)-1-benzylpyrazol-5-yl)benzene], the melting point lay in the range of 93 to 94 °C. Also, at Human COX-1, the inhibition at 100 µM amounted to 55%. The inhibition at 1 µM against Human COX-2 (1 μM test compound) came out at 20%. Also, the inhibition at 10 µM against Human COX-2 (10 μM test compound) came out at 40%.
As for `CS(=O)(=O)c1ccc(-c2cc(/C=C/CO)nn2CC2CCCCC2)cc1` [Example 4d, 1-(3-((1E)-3-Hydroxyprop-1-enyl)-1-(cyclohexylmethyl)pyrazol-5-yl)-4-(methylsulfonyl)benzene], the inhibition at 100 µM on Human COX-1 was found to be 50%. The inhibition at 1 µM against Human COX-2 (1 μM test compound) is 25%. Further, the inhibition at 10 µM at Human COX-2 (10 μM test compound) was 45%.
Turning to `CS(=O)(=O)c1ccc(-c2cc(/C=C/CO[N+](=O)[O-])nn2CC2CCCCC2)cc1` [Example 4e, 1-(3-((1E)-3-Nitrooxyprop-1-enyl)-1-(cyclohexylmethyl)pyrazol-5-yl)-4-(methylsulfonyl)benzene], the melting point lay within 44 to 47 °C. Moreover, on Human COX-1, the inhibition at 100 µM turned out to be 40%. In addition, the inhibition at 1 µM on Human COX-2 (1 μM test compound) was 35%. At Human COX-2 (10 μM test compound), the inhibition at 10 µM stood at 75%.
On to `CS(=O)(=O)c1ccc(-c2cc(CCCO)nn2CC2CCCCC2)cc1` [Example 5b, 1-(1-(Cyclohexylmethyl)-3-(3-hydroxypropyl)pyrazol-5-yl)-4-(methylsulfonyl)benzene], for which the inhibition at 100 µM on Human COX-1 came out at 90%. The inhibition at 1 µM against Human COX-2 (1 μM test compound) came to 45%. Besides, the inhibition at 10 µM at Human COX-2 (10 μM test compound) worked out at 90%.
Consider `CS(=O)(=O)c1ccc(-c2cc(CCCO[N+](=O)[O-])nn2CC2CCCCC2)cc1` [Example 5c, 1-(1-(Cyclohexylmethyl)-3-(3-(nitrooxy)propyl)pyrazol-5-yl)-4-(methylsulfonyl)benzene], for which the melting point is 76 to 77 °C. Besides, the inhibition at 100 µM at Human COX-1 was found to be 90%. In addition, the inhibition at 1 µM at Human COX-2 (1 μM test compound) was 75%. For the same compound, at Human COX-2 (10 μM test compound), the inhibition at 10 µM was 100%.
On the same counts, the results for `C=Cc1cc(-c2ccc(S(C)(=O)=O)cc2)n(CC2CCCCC2)n1` [Example 6b, 1-(1-(Cyclohexylmethyl)-3-vinylpyrazol-5-yl)-4-(methylsulfonyl)benzene] are 136 to 138 °C, 30%, 70% and 100%.
`COC(=O)/C=C/c1cc(-c2ccc(S(C)(=O)=O)cc2)n(CC2CCCCC2)n1` [Example 7, Methyl (2E)-3-(1-(cyclohexylmethyl)-5-(4-(methylsulfonyl)phenyl)pyrazol-3-yl) prop-2-enoate]: the “COX-1 Inhibition (% at 100 μM)” value on Human COX-1 was 5%. At Human COX-2 (1 μM test compound), the “COX-2 Inhibition (% at 1 μM)” value is 15%. Besides, the “COX-2 Inhibition (% at 10 μM)” value at Human COX-2 (10 μM test compound) was 30%.
`CS(=O)(=O)c1ccc(-c2cc(C(F)(F)F)cnc2C(=O)c2ccccc2)cc1` [Example 9a, 3-(4-(Methylsulfonyl)phenyl)-5-(trifluoromethyl)(2-pyridyl) Phenyl Ketone] came in with a melting point of 141 to 142 °C. The inhibition at 100 µM at Human COX-1 came to 90%.
For `CS(=O)(=O)c1ccc(-c2cc(C(F)(F)F)cnc2C(C#N)c2ccccc2)cc1` (stereo not shown) [Example 9b, 2-(3-(4-(methylsulfonyl)phenyl)-5-(trifluoromethyl)(2-pyridyl))-2-phenylethanenitrile], the inhibition at 100 µM against Human COX-1 was -10%. Also, the inhibition at 1 µM on Human COX-2 (1 μM test compound) is 35%. Further, the inhibition at 10 µM on Human COX-2 (10 μM test compound) is 55%.
On the same counts, the results for `CS(=O)(=O)c1ccc(-c2ncccc2C(=O)c2cccc(F)c2)cc1` [Example 10c, 3-Fluorophenyl 2-(4-methylsulfonylphenyl)(3-pyridyl) ketone] are 5%, 55% and 50%.
